Data taken from doi:10.1101/2021.12.13.472350v1, “An amphipathic and cationic antimicrobial peptide kills colistin resistant Gram-negative pathogens in vivo” (bioRxiv, 2021).
Values after ≈ are worked out from the molar mass of the structure shown. Marks after values point to notes of the source that are not given here. Peptide text beside a SMILES is read from it.

What was measured:
[1] = test system: Acinetobacter baumannii RC64; conditions: RC64, ATCC 19606 pmrB::R134C pmrB::A227V; MHB-II, 37°C, ~5×10^5 CFU/ml, triplicate
[2] = test system: Pseudomonas aeruginosa ATCC 27853
Eschericia coli ML-35p = conditions: LacI- LacY- LacZ+, MHB-II, 37°C, ~5×10^5 CFU/ml, triplicate
[3] = test system: Eschericia coli ATCC 25922; type: cell-based
[4] = test system: Acinetobacter baumannii ATCC 19606; conditions: ATCC 19606
E. coli ATCC 25922 [5] = test: Time kill experiments; type: cell-based; conditions: detection limit 50 CFU
[6] = test system: Pseudomonas aeruginosa Q5
[7] = test system: Pseudomonas aeruginosa SNRC (PAO1 background); conditions: colistin resistance evolved laboratory isolate, MHB-II, 37°C, ~5×10^5 CFU/ml, triplicate
[8] = test system: Pseudomonas aeruginosa PAO1
E. coli ATCC 25922 [9] = test: In vivo sepsis/peritonitis mouse infection model; conditions: NMRI mice infected IP; 10 mg/ml colistin as printed, IP at 1 and 3 h post infection
[10] = test system: Acinetobacter baumannii AB176
[11] = test system: Acinetobacter baumannii AB176R; conditions: AB176 lpxD::G739T (ΔlpxD), LPS deficient, MHB-II, 37°C, ~5×10^5 CFU/ml, triplicate
A. baumannii ATCC 19606 = test: In vivo sepsis/peritonitis mouse infection model; conditions: NMRI mice infected IP, 10 mg/kg IP at 1 and 3 h
Eschericia coli ST131 = conditions: ST131, ESBL CTX-M-15; MHB-II, 37°C, ~5×10^5 CFU/ml, triplicate
E. coli ESBL20150072 = test: In vivo sepsis/peritonitis mouse infection model; conditions: NMRI mice infected IP
Protocol: Outbred female NMRI mice (NMRI; weight 26–30 g; Taconic, Denmark) were used throughout the study, as previously described ([69], [70]). […] Colistin is recommended at a dose of 5-10 mg/kg, according to the European Medicines Agency (EMA) ([71]). The animals were kept in Macrolon type III cages in groups of six and allowed free access to feed and water. Experiments were initiated after an acclimatization period of 7 days. Inoculation (bacterial infection) was performed by intraperitoneal (IP) injection of 0.5 ml bacterial suspension containing 2×10^7 CFU/ml and 5% (wt/vol) mucin (Sigma-Aldrich). During experiments, groups of eight mice per cage constituting one experimental unit were randomly assigned to treatment (5 mg/kg ChIP and 10 mg/kg ChIP or colistin 10 mg/kg and 24 mg/kg) or no treatment (vehicle). Peptide and colistin was administered as a single bolus injection IP (volume injected 0.2 ml) at 1 hours and again 3. At various times post-infection, ∼200 µL blood from the jaw/cheek was collected in Eppendorf tubes with anti-coagulate (Sarstedt, Nümbrecht, Germany). Peritoneal lavage was performed by injecting 2.0 ml of sterile physiological saline IP. After 1 minute of abdominal massage, the peritoneum was opened and peritoneal lavage fluid (PLF) withdrawn. PLF was immediately placed in an insulated 4 °C cooling box for transportation and kept on ice at 4 °C. The mouse peritonitis model was repeated in duplicates for E. coli ATCC 25922 and A. baumannii ATCC 19606 nad in triplicate for E. coli ESBL20150072, while only a single experiment was carried out on A. baumannii CR17. Animals were sacrificed at various times prior to and following infection. Data from repeated experiments were pooled for analyses. Quantification of bacterial load was performed by spot plating of blood and peritoneal fluid samples from the mice. Dilution series were made in sterile 0.9% NaCl solution, from which 20 μl was spotted on solid lactose agar plates (Bromthymole Blue plates, SSI Diagnostica). Bacterial counts were recorded after overnight incubation at 37 °C in ambient air. The detection limit was 50 CFU/ml. The clinical condition of the mice was determined using a self-developed clinical score. For this score, mouse behavior and appearance were observed and evaluated for the parameters piloerection, attitude, locomotion, breathing and curiosity and awarded a score from 0 to 5 by a blinded observer. 0 = no clinical signs, 1 = slightly ruffled fur, 2 = ruffled fur and strenuous breathing, 3 = 2 plus lethargy, 4 = 3 plus hunched posture and decreased activity, and 5 = moribund. No significant difference in the clinical score between groups was observed 2 and 4 h post treatment. All mice were recorded for score 2.

[12] = test system: Klebsiella pneumoniae ATCC 13883; conditions: ATCC 13883
[13] = test system: Klebsiella pneumoniae ATCC 700603; conditions: ATCC 700603, SHV-18, mucoid; MHB-II, 37°C, ~5×10^5 CFU/ml, triplicate
[14] = test system: Acinetobacter baumannii CR17; conditions: CR17, CS01 pmrA::M12K; MHB-II, 37°C, ~5×10^5 CFU/ml, triplicate
[15] = test system: Acinetobacter baumannii AB167R; conditions: AB167 lpxC::ISAba1, LPS deficient, MHB-II, 37°C, ~5×10^5 CFU/ml, triplicate
[16] = test system: Acinetobacter baumannii CS01
[17] = test system: Klebsiella pneumoniae ST512; conditions: ST512, KPC-3, ΔmgrB, L-Ara4N modified, mucoid; MHB-II, 37°C, ~5×10^5 CFU/ml, triplicate
[18] = test system: Eschericia coli BW25113 pACYC184; conditions: BW25113 with pACYC184; MHB-II, 37°C, ~5×10^5 CFU/ml, triplicate
[19] = test system: Acinetobacter baumannii AB167

## CC[C@H](C)CCCCC(=O)N[C@@H](CCN)C(=O)N[C@H](C(=O)N[C@@H](CCN)C(=O)N[C@H]1CCNC(=O)[C@H]([C@@H](C)O)NC(=O)[C@H](CCN)NC(=O)[C@H](CCN)NC(=O)[C@H](CC(C)C)NC(=O)[C@@H](CC(C)C)NC(=O)[C@H](CCN)NC1=O)[C@@H](C)O [Colistin, colistin] (HELM PEPTIDE1{[CC[C@H](C)CCCCC(=O)[*:2]].[Dab].T.[Dab].[Dab].[Dab].[dL].L.[Dab].[Dab].T}$PEPTIDE1,PEPTIDE1,5:R3-11:R2$$$V2.0; N-terminus assumed; bridges inferred)
[1]
  MIC: 64 µg/mL (≈ 54.7 µM)
[2]
  MIC: 1 µg/mL (≈ 0.855 µM)
Eschericia coli ML-35p
  MIC: 0.25 µg/mL (≈ 0.214 µM)
[3]
  MIC: 0.125-0.25* μg/ml
[4]
  MIC: 0.5 µg/mL (≈ 0.428 µM)
E. coli ATCC 25922 [5]; 1xMIC
  cell viability after treatment: reduction in CFU to the detection limit
E. coli ATCC 25922 [5]; 3xMIC, over the first 5 hours
  cell viability after treatment: reduction in CFU to the detection limit
[6]
  MIC: >256 µg/mL
[7]
  MIC: >256 µg/mL
[8]
  MIC: 0.5 µg/mL (≈ 0.428 µM)
E. coli ATCC 25922 [9]
  peritoneal bacterial titers compared with ChIP 5 mg/kg (2 logs reduction, 1-5×10^5 CFU/ml): similar
Eschericia coli AMA 817
  MIC: 0.125 µg/mL (≈ 0.107 µM)
[10]
  MIC: 0.5 µg/mL (≈ 0.428 µM)
P. aeruginosa B3-CFI
  MIC: >256 µg/mL
[11]
  MIC: >256 µg/mL
A. baumannii ATCC 19606; after 5 hours
  reduction of peritoneal bacterial titers relative to saline control: 3-4 log
A. baumannii ATCC 19606; after 5 hours, saline control around 1×10^8 CFU/ml
  peritoneal bacterial titers: 1×10^3-1×10^4 CFU/ml
A. baumannii ATCC 19606; detection limit 50 CFU/ml
  bacterial blood titers: reduce CFU/ml to the detection limit
Eschericia coli ST131
  MIC: 1 µg/mL (≈ 0.855 µM)
Eschericia coli MG1655
  MIC: 0.25 µg/mL (≈ 0.214 µM)
E. coli ESBL20150072; 24 mg/kg IP at 1 and 3 h, mcr-1 genotype
  effect on peritoneal titers: no effect
E. coli ESBL20150072; colistin 24 mg/kg, similar to vehicle control
  bacterial blood stream titers: ~1×10^6 CFU/ml
[12]
  MIC: 0.5 µg/mL (≈ 0.428 µM)
[13]
  MIC: 2 µg/mL (≈ 1.71 µM)
[14]
  MIC: >256 µg/mL
[15]
  MIC: >256 µg/mL
[16]
  MIC: 0.5 µg/mL (≈ 0.428 µM)
[17]
  MIC: 128 µg/mL (≈ 109 µM)
[18]
  MIC: 0.5 µg/mL (≈ 0.428 µM)
[19]
  MIC: 0.5 µg/mL (≈ 0.428 µM)
